{
  "source": "patent US20190374557A1",
  "about": "“Cyclobutyl (S)-2-[[[(R)-2-(6-aminopurin-9-yl)-1-methyl-ethoxy]methyl-phenoxy-phosphoryl]amino]-propanoates, and production process and application thereof” (ALLA CHEM, LLC, priority 2017, published 2019)",
  "key": {"[1]": {"test_system": "HIV strain NL4.3 carrying a gene encoding the green fluorescent protein (NL4.3-GFP)", "assay": "microbe, parasite or virus in culture", "settings": "Human immunodeficiency virus 1, SUP-T1, 45 h, read-out: Activity (EC50)"}, "[2]": {"test_system": "HIV strain NL4.3 carrying a gene encoding the green fluorescent protein (NL4.3-GFP)", "settings": "SupT1 cells"}, "[3]": {"assay": "in vitro", "settings": "human, uninfected SupT1 cells (T-lymphocyte line)"}},
  "data": [
    {"smiles": "CC(C)OC(=O)[C@H](C)N[P@](=O)(CO[C@H](C)Cn1cnc2c(N)ncnc21)Oc1ccccc1", "note": "[TAF, tenofovir alafenamide]", "values": [
      {"measurement": "EC50", "setting": "[1]", "result": 35, "unit": "nM"},
      {"measurement": "selectivity index SI = CC50/EC50", "setting": "[2]", "result": 2857},
      {"measurement": "CC50", "setting": "[3]", "result": "> 100000", "unit": "nM"}
    ]}
  ]
}
